Data: patent US20060089335A1, “Compositions and methods for enhancing cognitive function and synaptic plasticity” (priority 2003, published 2006)
“And” between values parts separate entries of the source, which are not always exact repeats. Equal entries are not always repeated. “Also recorded” adds a separate entry of the source. Peptide text beside a SMILES is read from it.

Experiments:
GABAB receptor = biological target: T1, GABAB receptor (Rattus norvegicus, UniProt O88871+Q9Z0U4); conditions: rat neocortical slices; cited from earlier work
T1 construct: GABAB receptor-mediated hyperpolarizing responses to baclofen in rat neocortical slices (Kerr, 2003); host or cells: rat neocortical slices (tissue, endogenous receptor)
T1 sequence (O88871 41-940): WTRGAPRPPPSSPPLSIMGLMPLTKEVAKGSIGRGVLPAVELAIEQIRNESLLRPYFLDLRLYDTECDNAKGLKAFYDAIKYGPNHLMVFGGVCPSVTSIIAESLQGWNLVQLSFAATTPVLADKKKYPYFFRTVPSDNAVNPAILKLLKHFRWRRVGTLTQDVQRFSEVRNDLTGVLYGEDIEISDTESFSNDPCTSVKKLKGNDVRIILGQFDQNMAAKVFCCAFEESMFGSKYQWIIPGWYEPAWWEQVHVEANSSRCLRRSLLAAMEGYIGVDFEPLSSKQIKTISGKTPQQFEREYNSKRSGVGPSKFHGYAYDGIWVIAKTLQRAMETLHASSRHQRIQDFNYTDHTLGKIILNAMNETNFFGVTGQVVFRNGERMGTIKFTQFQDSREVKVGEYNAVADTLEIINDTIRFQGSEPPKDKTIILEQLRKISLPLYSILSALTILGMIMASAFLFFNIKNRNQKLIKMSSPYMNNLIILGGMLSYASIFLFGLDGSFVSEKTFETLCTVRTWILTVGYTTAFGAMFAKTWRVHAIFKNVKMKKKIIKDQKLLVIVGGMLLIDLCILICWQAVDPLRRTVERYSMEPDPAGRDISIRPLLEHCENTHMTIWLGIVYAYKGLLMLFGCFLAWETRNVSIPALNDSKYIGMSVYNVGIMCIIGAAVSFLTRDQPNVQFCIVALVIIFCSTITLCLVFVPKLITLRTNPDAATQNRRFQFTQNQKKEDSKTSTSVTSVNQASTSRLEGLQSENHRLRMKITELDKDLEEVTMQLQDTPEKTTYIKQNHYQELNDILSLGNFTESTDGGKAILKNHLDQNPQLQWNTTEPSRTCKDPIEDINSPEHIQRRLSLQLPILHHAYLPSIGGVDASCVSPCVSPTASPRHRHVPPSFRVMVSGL
T1 sequence (Q9Z0U4 17-960): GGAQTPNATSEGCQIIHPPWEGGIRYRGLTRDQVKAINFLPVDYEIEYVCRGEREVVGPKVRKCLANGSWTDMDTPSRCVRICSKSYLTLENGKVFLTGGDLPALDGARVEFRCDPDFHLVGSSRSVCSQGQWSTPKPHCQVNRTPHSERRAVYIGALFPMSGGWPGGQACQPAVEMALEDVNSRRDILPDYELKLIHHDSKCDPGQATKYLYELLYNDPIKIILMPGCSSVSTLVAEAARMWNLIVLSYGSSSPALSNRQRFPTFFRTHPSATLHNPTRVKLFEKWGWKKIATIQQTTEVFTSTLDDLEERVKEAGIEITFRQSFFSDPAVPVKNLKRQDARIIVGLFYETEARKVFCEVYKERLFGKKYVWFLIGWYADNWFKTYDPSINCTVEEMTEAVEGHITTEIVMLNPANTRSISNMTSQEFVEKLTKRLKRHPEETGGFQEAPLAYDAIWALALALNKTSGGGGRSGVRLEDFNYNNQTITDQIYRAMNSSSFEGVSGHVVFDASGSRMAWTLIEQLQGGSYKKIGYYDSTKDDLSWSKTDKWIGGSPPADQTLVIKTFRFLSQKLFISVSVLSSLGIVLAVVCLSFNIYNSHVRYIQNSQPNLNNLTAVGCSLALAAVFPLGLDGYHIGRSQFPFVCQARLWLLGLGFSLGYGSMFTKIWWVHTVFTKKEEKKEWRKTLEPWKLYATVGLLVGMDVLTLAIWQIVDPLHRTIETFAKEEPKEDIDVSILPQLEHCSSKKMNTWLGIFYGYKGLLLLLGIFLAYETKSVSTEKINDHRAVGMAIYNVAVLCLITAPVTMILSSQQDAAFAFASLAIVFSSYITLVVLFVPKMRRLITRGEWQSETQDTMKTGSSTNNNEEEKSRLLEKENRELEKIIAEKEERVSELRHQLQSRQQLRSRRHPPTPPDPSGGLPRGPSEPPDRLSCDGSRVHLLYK

[1] = test system: excitatory and inhibitory terminals; conditions: short treatment (2-24 hr)
[2] = test system: presynaptic terminals of cultured hippocampal neurons; experiment: TBS-induced presynaptic plasticity measured by FM 1-43 dye uptake in hippocampal cultures; type: cell-based, rat; conditions: for TBS-induced potentiation / plasticity after prolonged treatment: 48 hours of incubation
[3] = test system: cultured hippocampal neurons; experiment: control recordings of membrane potential, synaptic inputs and firing; type: cell-based, rat; conditions: treatments of FIG. 5D
Procedure: (§1) Electrophysiology. Dual whole cell perforated patch clamp recordings were made on two interconnected cultured hippocampal pyramidal neurons. Perforated patch pipettes were front-filled with a solution containing (in mM): CsOH, 127; D-gluconic acid, 127; CsCl, 4; HEPES, 10; NaCl, 8; EGTA, 0.4; pH was adjusted to 7.25 with CsOH, and then back-filled with the same solution containing […] amphotericin B (Sigma, St. Louis, Mo.). Extracellular solution contained (in mM): NaCl, 145; KCl, 3; glucose, 15; HEPES, 10; MgCl2, 0.8-1.2; CaCl2, 1.2; 0.005 glycine (Sigma), 0.05 picrotoxin (Sigma); pH adjusted to 7.4 with NaOH. MgCl2 concentration was matched to its concentration in culture medium. In experiments where effects of drugs on neuronal activity were quantified (FIG. 4D), recordings were done in culture medium (with HEPES replacing bicarbonate/CO2 to maintain pH). All experiments were performed at room temperature. For assaying synaptic connectivity, each neuron was stimulated by 1 ms step depolarization from −70 to +30 mV in voltage-clamp mode. Only neurons with monosynaptic connections were used. […] Recordings with access resistance>20 MΩ or that varied substantially were rejected from analysis.

[4] = biological target: NMDA receptors (NR2B-containing) (Rattus norvegicus, UniProt P35439+Q00960); experiment: evoked NMDA currents ([…]), double-perforated patch; type: cell-based
Sequence of NMDA receptors (NR2B-containing) (Q00960 27-1482, other chains not shown): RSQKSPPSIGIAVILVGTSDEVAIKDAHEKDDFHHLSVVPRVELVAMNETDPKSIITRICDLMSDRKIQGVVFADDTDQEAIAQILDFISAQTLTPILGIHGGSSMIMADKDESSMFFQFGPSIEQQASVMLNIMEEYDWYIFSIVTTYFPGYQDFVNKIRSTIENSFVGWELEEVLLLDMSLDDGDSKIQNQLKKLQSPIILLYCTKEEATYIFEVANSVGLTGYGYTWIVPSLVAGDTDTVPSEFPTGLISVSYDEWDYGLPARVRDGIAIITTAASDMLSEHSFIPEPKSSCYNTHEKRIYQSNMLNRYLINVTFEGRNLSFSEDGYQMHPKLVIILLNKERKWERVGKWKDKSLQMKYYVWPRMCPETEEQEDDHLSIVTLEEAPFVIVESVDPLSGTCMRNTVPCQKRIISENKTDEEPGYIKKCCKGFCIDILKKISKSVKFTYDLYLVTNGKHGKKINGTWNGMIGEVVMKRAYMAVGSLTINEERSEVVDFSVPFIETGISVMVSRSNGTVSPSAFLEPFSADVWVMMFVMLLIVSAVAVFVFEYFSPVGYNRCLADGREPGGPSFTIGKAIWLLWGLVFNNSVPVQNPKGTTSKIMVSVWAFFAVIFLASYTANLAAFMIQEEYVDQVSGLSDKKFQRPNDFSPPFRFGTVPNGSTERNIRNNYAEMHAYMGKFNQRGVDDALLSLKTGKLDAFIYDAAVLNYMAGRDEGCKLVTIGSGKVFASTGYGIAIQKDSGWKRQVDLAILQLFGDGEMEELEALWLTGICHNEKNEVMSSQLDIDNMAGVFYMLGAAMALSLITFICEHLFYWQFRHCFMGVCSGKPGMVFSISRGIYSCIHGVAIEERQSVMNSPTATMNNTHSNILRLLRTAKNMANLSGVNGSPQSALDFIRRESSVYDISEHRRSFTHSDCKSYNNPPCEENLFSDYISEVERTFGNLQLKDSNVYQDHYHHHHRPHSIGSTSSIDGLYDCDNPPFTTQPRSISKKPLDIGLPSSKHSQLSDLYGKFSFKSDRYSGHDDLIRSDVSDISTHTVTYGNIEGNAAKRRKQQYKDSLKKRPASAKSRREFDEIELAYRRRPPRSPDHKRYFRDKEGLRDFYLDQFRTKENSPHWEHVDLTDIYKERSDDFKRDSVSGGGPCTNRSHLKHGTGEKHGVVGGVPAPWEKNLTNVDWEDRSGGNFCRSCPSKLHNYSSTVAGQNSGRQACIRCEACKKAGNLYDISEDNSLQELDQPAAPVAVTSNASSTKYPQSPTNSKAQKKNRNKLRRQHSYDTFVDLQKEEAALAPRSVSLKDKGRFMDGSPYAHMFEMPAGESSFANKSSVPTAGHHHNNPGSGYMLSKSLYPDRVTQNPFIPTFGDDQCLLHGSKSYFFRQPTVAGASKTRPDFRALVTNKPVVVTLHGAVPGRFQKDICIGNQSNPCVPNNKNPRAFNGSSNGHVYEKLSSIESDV
Procedure: as §1
We hypothesized that one target may be the number and properties of NMDA receptors at individual synapses.

[5] = test system: postsynaptic locations of cultured hippocampal neurons; experiment: postsynaptic evoked current response to iontophoretic glutamate (AMPA-R insertion); type: cell-based, rat; conditions: Mg^++-treated culture; reversed by washout
Excerpt: These were generally as described in the preceding examples. Glutamatergic iontophoresis was perfomed as described [Murnick 2000].
Since we wished to correlate the above pre-synaptic findings to the plasticity of single or small clusters of postsynaptic locations, this ruled out traditional double-patch plasticity experiments in which heterogeneous populations of connections are studied. Such studies also usually confound pre-synaptic and postsynaptic effects. For this purpose, we developed a technique of high-temporal and spatial resolution glutamatergic iontophoresis that allows us to stimulate single or small clusters of postsynaptic locations (resolution ˜2 μm, 1 ms; [Murnick 2000]).
To determine whether a decrease in overall activity of a neural network leads to increased plasticity (i.e., an increase in synaptic strength in response to a pattern of stimulation) of postsynaptic locations, we assessed the effect of treatment with Mg^++ on the ability of postsynaptic locations to respond to glutamate. As described above, Mg^++ blocks the NMDA receptor channel at resting membrane potential, so Mg^++ treatment reduces the overall activity level of the neural network. As also described above, increases in postsynaptic intracellular Ca^++ stimulated by activation of NMDA receptors leads to recruitment of AMPA receptors and their insertion into the postsynaptic membrane. […]

[6] = test system: structural synaptic terminals; experiment: FM dye uptake of structural synaptic terminals, 30 AP protocol; type: cell-based, rat; conditions: 100 ng/ml BDNF
Procedure: FM 1-43 Loading and Destaining. Functional presynaptic boutons were stained with 10 μM FM 1-43 (synaptogreen, Biotium) by eliciting 30 APs at 0.5-1 Hz. This loading protocol was chosen to avoid short-term plasticity and “re-use” of vesicles through “kiss-run” mode of exocytosis (Aravanis et al., 2003). The neurons were stimulated to fire action potentials by passing 1 ms 50 mA current through platinum electrodes placed at a distance of 7 mm from both sides of the chamber. To ensure reliable action potential initiation, the current amplitude was chosen to be 50% above the threshold for action potential generation, as confirmed by whole-cell patch clamp recording. To prevent recurrent activity, excitatory postsynaptic responses were blocked completely by the addition of DL-AP5 (50 μM, Sigma) and NBQX (10 μM, Sigma) during FM loading and unloading procedures. […]
To further determine the number of these very low Pr terminals and their proportion to the whole population of functional synaptic terminals, we compared the co-localization of FM puncta obtained for the 30 AP loading with puncta obtained using fluorescent antibodies against specific presynaptic proteins. […] Twenty percent more functional synapses were detected by this procedure, also consistent with a previous report (Murthy et al., 1997). […]

In the case of `N=C(N)NCCC[C@H](N)C(=O)O` [L-Arg], the “potency as potentiator of GABAB receptor-mediated hyperpolarizing responses to baclofen” value (“potency as potentiator” for short) (GABAB receptor) is given as “less potent”.

For `N[C@@H](CS)C(=O)O` [L-Cys], the “potency as potentiator” value (GABAB receptor) is given as “less potent”.

For `N[C@@H](CSSC[C@H](N)C(=O)O)C(=O)O` [L-Cystine], the “potency as potentiator” value (GABAB receptor) is listed as “less potent”.

In the case of `CC(C)C[C@H](N)C(=O)O` [L-Leu], the “potency as potentiator” value (GABAB receptor) is given as “Most potent”.

In the case of `CSCC[C@H](N)C(=O)O` [L-Met], the “potency as potentiator” value (GABAB receptor) is listed as “less potent”.

In the case of `CC(C)C[C@H](NC(=O)[C@@H](N)Cc1ccccc1)C(=O)O` [L-Phe-Leu] (H-Phe-Leu-OH), the “potency as potentiator” value (GABAB receptor) is given as “Most potent”.

In the case of `N[C@@H](Cc1ccccc1)C(=O)N[C@@H](Cc1ccccc1)C(=O)O` [L-Phe-Phe] (H-Phe-Phe-OH), the “potency as potentiator” value (GABAB receptor) is given as “Most potent”.

In the case of `N[C@@H](Cc1ccccc1)C(=O)O` [L-Phe], the “potency as potentiator” value (GABAB receptor) is listed as “Most potent”.

For `N[C@@H](CO)C(=O)O` [L-Ser], the “potency as potentiator” value (GABAB receptor) is listed as “less potent”.

For `C[C@@H](O)[C@H](N)C(=O)O` [L-Thr], the “potency as potentiator” value (GABAB receptor) is listed as “less potent”.

For `N[C@@H](Cc1ccc(O)cc1)C(=O)O` [L-Tyr], the “potency as potentiator” value (GABAB receptor) is listed as “less potent”.

For `CC(C)[C@H](N)C(=O)O` [L-Val], the “potency as potentiator” value (GABAB receptor) is given as “less potent”.

With `NS(=O)(=O)c1cccc2c1c([N+](=O)[O-])cc1nc(O)c(O)nc12` [NBQX, reference compound] the “change of synaptic density” value [1] was “No short treatment (2-24 hr, baclofen, nimodepine, NBQX, and TTX) produced a significant change of synaptic density” and the “TBS-induced potentiation / plasticity after prolonged treatment” value [2] was “no significant TBS-induced potentiation; also recorded: lose plasticity”.

In the case of `[Zn+2]` [Zn^++], the “change in average firing rates of neurons within cultured neural networks” value [3] is reported as “none of these treatments induces a significant change”, the “plasticity of presynaptic terminals after partial block of Ca flux” value ([2]; 0.4 mM Mg^++ added or 5 mM Zn^++ two weeks, 10 mM nimodipine 2 days) is reported as “significant increases of plasticity” and the “optimal concentration for plasticity (maximal potentiability)” value ([2]; 2 weeks treatment) is reported as 2 mM. The “increase of synaptic strength at optimum concentration” value ([2]; FIGS. 6H-6J) was “up to approximately five-fold”.

In the case of `CN1C(=O)CN=C(c2ccccc2F)c2cc([N+](=O)[O-])ccc21` [flunitrazepam, reference compound], the “TBS-induced potentiation / plasticity after prolonged treatment” value [2] is reported as “no significant TBS-induced potentiation; also recorded: lose plasticity”.

With `CC(C(O)c1ccc(O)cc1)N1CCC(Cc2ccccc2)CC1` (stereo not drawn) [ifenprodil] the “reduction of TBS-induced presynaptic potentiation” value ([2]; 1 μM ifenprodil, 1.2 mM Mg^2+ cultures) was 50% and 48±7%, the reduction of current [4] was 53% and the “reduction of total charge transfer” value [4] was 85% and 45%. The “reduction of total charge transfer of EPSCNMDA” value [4] was 80% and 45% and 45±2%.

In the case of D-AP5 [reference compound], the “theta-burst-induced changes of Pr (F2/F1, N2/N1, S2/S1) in presence of NMDAR blocker” value [2] is reported as “No detectable changes of Pr” and the “effect of NMDA antagonist on the increase in postsynaptic current” value [5] is reported as “blocked it”.

In the case of L-Ile, the “potency as potentiator” value (GABAB receptor) is given as “Most potent”.

B1: BDNF: neurotrophin known to increase the Pr of synaptic terminals (protein, UniProt P23560 19-247, looked up)
Neurotrophic factor BDNF …: APMKEANIRGQGGLAYPGVRTHGTLESVNGPKAGSRGLTSLADTFEHVIEELLDEDQKVRPNEENNKDADLYTSRVMLSSQVPLEPPLLFLLEEYKNYLDAANMSMRVRRHSDPARRGELSVCDSISEWVTAADKKTAVDMSGGTVTVLEKVPVSKGQLKQYFYETKCNPMGYTKEGCRGIDKRHWNSQCRTTQSYVRALTMDSKKRIGWRFIRIDTSCVCTLTIKRGR
With B1 the “FM dye uptake by structural synaptic terminals” value [6] was “all structural synaptic terminals became capable of taking up FM dye”.
